Patent publication US11000033B2, “Ketone or oxime compound, and herbicide” (NISSAN CHEMICAL CORPORATION, priority 2014, dated 2021)

How the values were obtained:
Assay type in all cases: in vivo
[1] = test system: Galium spurium; assay: Test Example 4: herbicidal effect by soil treatment (symbol Q); details: application herbicide amount 320 g/ha
Procedure, shortened: (§1)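 Seeds were sown in sterilized diluvial soil, covered with about 1.5 cm of soil, and the soil surface was sprayed with a water-diluted emulsion of the compound at a predetermined rate. Plants grew in a greenhouse at 25° C. to 30° C.; effects were scored visually 3 weeks after application.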

[2] = test system: Abutilon theophrasti; assay: Test Example 5: herbicidal effect by foliage application, plastic box (symbol M); details: 320 g/ha, 3 weeks after application
Procedure, shortened: (§2)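 Sowing in sterilized diluvial soil, 14 days' greenhouse growth at 25° C. to 30° C., then uniform small-sprayer foliar application of aqueous emulsion dilution; plants scored three weeks afterwards.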

[3] = test system: Scirpus juncoides; assay: Test Example 1: herbicidal activity, application before weed generation in submerged conditions (symbol B); details: application herbicide amount 320 g/ha
Procedure, shortened: (§3)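 Weeds are sown into submerged alluvial soil alongside transplanted 2.5-leaf rice, and the compound, as an emulsion diluted to a set rate, is applied onto the water before emergence. Rating on the 0–5 herbicidal-ratio scale follows 3 weeks of greenhouse growth at 25–30 °C.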

[4] = test system: Setaria viridis; assay: Test Example 4: herbicidal effect by soil treatment (symbol G); details: application herbicide amount 320 g/ha
Procedure, shortened: as §1

[5] = test system: Apera spica-venti; assay: Test Example 4: herbicidal effect by soil treatment (symbol L); details: application herbicide amount 320 g/ha
Procedure, shortened: as §1

[6] = test system: Stellaria media; assay: Test Example 5: herbicidal effect by foliage application, plastic box (symbol P); details: 320 g/ha, 3 weeks after application
Procedure, shortened: as §2

[7] = test system: Alopecurus myosuroides; assay: Test Example 5: herbicidal effect by foliage application, plastic box (symbol J); details: 320 g/ha, 3 weeks after application
Procedure, shortened: as §2

[8] = test system: Alopecurus myosuroides; assay: Test Example 4: herbicidal effect by soil treatment (symbol J); details: application herbicide amount 320 g/ha
Procedure, shortened: as §1

[9] = test system: rapeseed; assay: Test Example 4: effect on crop by soil treatment (symbol g); details: application herbicide amount 320 g/ha
Procedure, shortened: (§4)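 Grown at 25° C. to 30° C. in a greenhouse, the crops came from seed sown spot-wise in sterilized diluvial soil under roughly 1.5 cm of covering soil.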

[10] = test system: Cyperus difformis; assay: Test Example 3: herbicidal effect by foliage application, Wagner pot (symbol E); details: application herbicide amount 320 g/ha
Procedure, shortened: (§5)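 Herbicidal activity was rated three weeks after a foliar spray of diluted emulsion concentrate, applied at a predetermined dose to plants grown for 14 days from seed in waterlogged alluvial soil within a 25–30 °C greenhouse.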

[11] = test system: Apera spica-venti; assay: Test Example 5: herbicidal effect by foliage application, plastic box (symbol L); details: 320 g/ha, 3 weeks after application
Procedure, shortened: as §2

[12] = test system: Amaranthus retroflexus; assay: Test Example 5: herbicidal effect by foliage application, plastic box (symbol N); details: 320 g/ha, 3 weeks after application
Procedure, shortened: as §2

[13] = test system: Echinochloa oryzacola Vasing.; assay: Test Example 1: herbicidal activity, application before weed generation in submerged conditions (symbol A); details: application herbicide amount 320 g/ha
Procedure, shortened: as §3

[14] = test system: Galium spurium; assay: Test Example 5: herbicidal effect by foliage application, plastic box (symbol Q); details: 320 g/ha, 3 weeks after application
Procedure, shortened: as §2

[15] = test system: Echinochloa crus-galli var. crus-galli; assay: Test Example 3: herbicidal effect by foliage application, Wagner pot (symbol H); details: application herbicide amount 320 g/ha
Procedure, shortened: as §5

[16] = test system: Digitaria ciliaris; assay: Test Example 5: herbicidal effect by foliage application, plastic box (symbol F); details: 320 g/ha, 3 weeks after application
Procedure, shortened: as §2

[17] = test system: beet; assay: Test Example 5: effect on crop by foliage application, plastic box (symbol f); details: 320 g/ha, 3 weeks after application
Procedure, shortened: (§6)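 Soil: sterilized diluvial. Container: plastic box, 21 × 13 cm, 7 cm deep. Sowing: spot-like, ~1.5 cm cover. Growth: greenhouse, 25° C. to 30° C.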

[18] = test system: wheat; assay: Test Example 4: effect on crop by soil treatment (symbol e); details: application herbicide amount 320 g/ha
Procedure, shortened: as §4

[19] = test system: rapeseed; assay: Test Example 5: effect on crop by foliage application, plastic box (symbol g); details: 320 g/ha, 3 weeks after application
Procedure, shortened: as §6

**Q.** For `CON=C(C)CC1CC(OS(=O)(=O)N(C)C)=C(c2c(C)cc(-c3ccc(F)cc3)cc2C)C1=O` (mixture of isomers) [6-060], which “Q: Galium spurium, herbicidal effect grade” value [1] is on record?
**A.** 0 (Herbicidal ratio of 5% or lower (almost no effect))

**Q.** What about the “M: Abutilon theophrasti, herbicidal effect (criteria of Test Example 1)” value (shortened to “M: Abutilon theophrasti”) [2] of the same compound?
**A.** 5 (Herbicidal ratio of 90% or more (almost completely withered))

**Q.** And the “Herbicidal effect grade, B: Scirpus juncoides” value (“Herbicidal effect grade, B” for short) [3]?
**A.** 5 (Herbicidal ratio of 90% or more (almost completely withered))

**Q.** What about the “G: Setaria viridis, herbicidal effect grade” value [4] of the same compound?
**A.** 5 (Herbicidal ratio of 90% or more (almost completely withered))

**Q.** What about the “L: Apera spica-venti, herbicidal effect grade” value [5] of the same compound?
**A.** 0 (Herbicidal ratio of 5% or lower (almost no effect))

**Q.** What about the “P: Stellaria media, herbicidal effect (criteria of Test Example 1)” value (“P: Stellaria media, herbicidal effect” for short) [6] of the same compound?
**A.** 4 (Herbicidal ratio of 70% or higher and lower than 90%)

**Q.** And the “J: Alopecurus myosuroides, herbicidal effect (criteria of Test Example 1)” value [7]?
**A.** 5 (Herbicidal ratio of 90% or more (almost completely withered))

**Q.** And the “J: Alopecurus myosuroides, herbicidal effect grade” value [8]?
**A.** 3 (Herbicidal ratio of 40% or higher and lower than 70%)

**Q.** And the “g: rapeseed, effect on crop grade” value [9]?
**A.** 0 (Herbicidal ratio of 5% or lower (almost no effect))

**Q.** And the “herbicidal effect on E, grade 0-5” value [10]?
**A.** 5 (Herbicidal ratio of 90% or more (almost completely withered))

**Q.** What about the “L: Apera spica-venti, herbicidal effect (criteria of Test Example 1)” value [11] of the same compound?
**A.** 5 (Herbicidal ratio of 90% or more (almost completely withered))

**Q.** What about the “N: Amaranthus retroflexus, herbicidal effect (criteria of Test Example 1)” value (“N: Amaranthus retroflexus” below) [12] of the same compound?
**A.** 4 (Herbicidal ratio of 70% or higher and lower than 90%)

**Q.** What about the “Herbicidal effect grade, A: Echinochloa oryzacola Vasing.” value [13] of the same compound?
**A.** 5 (Herbicidal ratio of 90% or more (almost completely withered))

**Q.** What about the “Q: Galium spurium, herbicidal effect (criteria of Test Example 1)” value [14] of the same compound?
**A.** 4 (Herbicidal ratio of 70% or higher and lower than 90%)

**Q.** What about the “herbicidal effect on H (Echinochloa crus-galli var. crus-galli), grade 0-5” value (“herbicidal effect on H” for short) [15] of the same compound?
**A.** 5 (Herbicidal ratio of 90% or more (almost completely withered))

**Q.** And the “F: Digitaria ciliaris, herbicidal effect (criteria of Test Example 1)” value (shortened to “F: Digitaria ciliaris, herbicidal effect”) [16]?
**A.** 5 (Herbicidal ratio of 90% or more (almost completely withered))

**Q.** And the “f: beet, effect on crop (criteria of Test Example 1)” value (“f: beet, effect on crop” below) [17]?
**A.** 2 (Herbicidal ratio of 20% or higher and lower than 40%)

**Q.** And the “e: wheat, effect on crop grade” value [18]?
**A.** 0 (Herbicidal ratio of 5% or lower (almost no effect))

**Q.** What about the “g: rapeseed, effect on crop (criteria of Test Example 1)” value [19] of the same compound?
**A.** 5 (Herbicidal ratio of 90% or more (almost completely withered))

**Q.** For `CON=C(C)CC1CC(OC(=O)SC(C)(C)C)=C(c2c(C)cc(-c3ccc(Cl)cc3)cc2C)C1=O` (stereo not drawn) [6-082], which “Q: Galium spurium, herbicidal effect grade” value [1] is on record?
**A.** 0 (Herbicidal ratio of 5% or lower (almost no effect))

**Q.** What about the “M: Abutilon theophrasti” value [2] of the same compound?
**A.** 4 (Herbicidal ratio of 70% or higher and lower than 90%)

**Q.** And the “Herbicidal effect grade, B” value [3]?
**A.** 4 (Herbicidal ratio of 70% or higher and lower than 90%)

**Q.** What about the “G: Setaria viridis, herbicidal effect grade” value [4] of the same compound?
**A.** 5 (Herbicidal ratio of 90% or more (almost completely withered))

**Q.** What about the “L: Apera spica-venti, herbicidal effect grade” value [5] of the same compound?
**A.** 5 (Herbicidal ratio of 90% or more (almost completely withered))

**Q.** What about the “P: Stellaria media, herbicidal effect” value [6] of the same compound?
**A.** 1 (Herbicidal ratio of 5% or higher and lower than 20%)

**Q.** And the “J: Alopecurus myosuroides, herbicidal effect (criteria of Test Example 1)” value [7]?
**A.** 5 (Herbicidal ratio of 90% or more (almost completely withered))

**Q.** And the “J: Alopecurus myosuroides, herbicidal effect grade” value [8]?
**A.** 5 (Herbicidal ratio of 90% or more (almost completely withered))

**Q.** What about the “g: rapeseed, effect on crop grade” value [9] of the same compound?
**A.** 0 (Herbicidal ratio of 5% or lower (almost no effect))

**Q.** And the “herbicidal effect on E, grade 0-5” value [10]?
**A.** 5 (Herbicidal ratio of 90% or more (almost completely withered))

**Q.** And the “L: Apera spica-venti, herbicidal effect (criteria of Test Example 1)” value [11]?
**A.** 5 (Herbicidal ratio of 90% or more (almost completely withered))

**Q.** What about the “N: Amaranthus retroflexus” value [12] of the same compound?
**A.** 1 (Herbicidal ratio of 5% or higher and lower than 20%)

**Q.** And the “Herbicidal effect grade, A: Echinochloa oryzacola Vasing.” value [13]?
**A.** 5 (Herbicidal ratio of 90% or more (almost completely withered))

**Q.** What about the “Q: Galium spurium, herbicidal effect (criteria of Test Example 1)” value [14] of the same compound?
**A.** 4 (Herbicidal ratio of 70% or higher and lower than 90%)

**Q.** What about the “herbicidal effect on H” value [15] of the same compound?
**A.** 5 (Herbicidal ratio of 90% or more (almost completely withered))

**Q.** And the “F: Digitaria ciliaris, herbicidal effect” value [16]?
**A.** 5 (Herbicidal ratio of 90% or more (almost completely withered))

**Q.** What about the “f: beet, effect on crop” value [17] of the same compound?
**A.** 0 (Herbicidal ratio of 5% or lower (almost no effect))

**Q.** What about the “e: wheat, effect on crop grade” value [18] of the same compound?
**A.** 0 (Herbicidal ratio of 5% or lower (almost no effect))

**Q.** What about the “g: rapeseed, effect on crop (criteria of Test Example 1)” value [19] of the same compound?
**A.** 4 (Herbicidal ratio of 70% or higher and lower than 90%)

**Q.** With `CC(=O)CC1CC(O)=C(c2c(C)cc(C)cc2Br)C1=O` (stereo not drawn) [7-011] as the compound, how does the “Herbicidal effect grade, Q: Galium spurium” value [1] read?
**A.** 0 (Herbicidal ratio of 5% or lower (almost no effect))

**Q.** And the “M: Abutilon theophrasti” value [2]?
**A.** 4 (Herbicidal ratio of 70% or higher and lower than 90%)

**Q.** And the “Herbicidal effect grade, B” value [3]?
**A.** 1 (Herbicidal ratio of 5% or higher and lower than 20%)

**Q.** What about the “Herbicidal effect grade, G: Setaria viridis” value [4] of the same compound?
**A.** 0 (Herbicidal ratio of 5% or lower (almost no effect))

**Q.** What about the “Herbicidal effect grade, L: Apera spica-venti” value [5] of the same compound?
**A.** 3 (Herbicidal ratio of 40% or higher and lower than 70%)

**Q.** What about the “P: Stellaria media, herbicidal effect” value [6] of the same compound?
**A.** 3 (Herbicidal ratio of 40% or higher and lower than 70%)

**Q.** What about the “J: Alopecurus myosuroides, herbicidal effect (criteria of Test Example 1)” value [7] of the same compound?
**A.** 4 (Herbicidal ratio of 70% or higher and lower than 90%)

**Q.** What about the “Herbicidal effect grade, J: Alopecurus myosuroides” value [8] of the same compound?
**A.** 3 (Herbicidal ratio of 40% or higher and lower than 70%)

**Q.** And the “Effect on crop grade, g: rapeseed” value [9]?
**A.** 4 (Herbicidal ratio of 70% or higher and lower than 90%)

**Q.** What about the “herbicidal effect on E, grade 0-5” value [10] of the same compound?
**A.** 5 (Herbicidal ratio of 90% or more (almost completely withered))

**Q.** What about the “L: Apera spica-venti, herbicidal effect (criteria of Test Example 1)” value [11] of the same compound?
**A.** 3 (Herbicidal ratio of 40% or higher and lower than 70%)

**Q.** And the “N: Amaranthus retroflexus” value [12]?
**A.** 5 (Herbicidal ratio of 90% or more (almost completely withered))

**Q.** And the “Herbicidal effect grade, A: Echinochloa oryzacola Vasing.” value [13]?
**A.** 2 (Herbicidal ratio of 20% or higher and lower than 40%)

**Q.** And the “Q: Galium spurium, herbicidal effect (criteria of Test Example 1)” value [14]?
**A.** 0 (Herbicidal ratio of 5% or lower (almost no effect))

**Q.** What about the “herbicidal effect on H” value [15] of the same compound?
**A.** 5 (Herbicidal ratio of 90% or more (almost completely withered))

**Q.** What about the “F: Digitaria ciliaris, herbicidal effect” value [16] of the same compound?
**A.** 4 (Herbicidal ratio of 70% or higher and lower than 90%)

**Q.** And the “f: beet, effect on crop” value [17]?
**A.** 0 (Herbicidal ratio of 5% or lower (almost no effect))

**Q.** What about the “Effect on crop grade, e: wheat” value [18] of the same compound?
**A.** 0 (Herbicidal ratio of 5% or lower (almost no effect))

**Q.** What about the “g: rapeseed, effect on crop (criteria of Test Example 1)” value [19] of the same compound?
**A.** 4 (Herbicidal ratio of 70% or higher and lower than 90%)
